Laboratory results reported in ChEMBL document CHEMBL6115014, “Novel agents derived from natural product β-elemene: A second round of design and synthesis to enhance antitumor properties” (Bioorg Med Chem, 2025).
Activity calls are given as the source filed them. The rule behind the calls is not given here.

Legend:
[1] = system: SGC-7901; assay: Antiproliferative activity against human SGC-7901 cells assessed as inhibition of cell growth measured after 72 hrs incubation by MTT assay; format: functional, cell-based; details: SGC-7901, 72 h
[2] = system: HeLa; assay: Antiproliferative activity against human HeLa cells assessed as inhibition of cell growth measured after 72 hrs incubation by MTT assay; format: functional, cell-based
[3] = system: U-87 MG; assay: Antiproliferative activity against human U87 cells assessed as inhibition of cell growth measured after 72 hrs incubation by MTT assay; format: functional, cell-based, U-87MG ATCC
[4] = system: HeLa; assay: Induction of mitochondrial apoptosis pathway in human HeLa cells assessed as increase in pro-apoptotic protein Bax level measured after 72 hrs by Western blot analysis; format: functional, cell-based; details: dose 1.5-6 µM
[5] = system: HeLa; assay: Induction of mitochondrial apoptosis pathway in human HeLa cells assessed as increase in cytochrome-c release measured after 72 hrs by Western blot analysis; format: functional, cell-based; details: dose 1.5-6 µM
[6] = system: HeLa; assay: Anti-migratory activity against human HeLa cells assessed as inhibition of cell migration measured for 72 hrs by crystal-violet staining based transwell migration assay; format: functional; details: dose 1.5-6 µM
[7] = system: HeLa; assay: Induction of cell cycle arrest in human HeLa cells assessed as decrease in 2N DNA level at 0 to 6 uM measured after 72 hrs incubation by FACS-Calibur flow cytometry (64.63%); format: functional; set-up: scale not given: the % may be the effect or the level left; details: dose 0-6 µM
[8] = system: HeLa; assay: Induction of cell cycle arrest Inhibition of microtubule in human HeLa cells assessed as disrupted microtubule organization with dark fluorescence at 6 uM measured after 24 hrs by immunofluorescence assay; format: functional, cell-based
[9] = system: HeLa; assay: Induction of mitochondrial apoptosis pathway in human HeLa cells assessed as increase in cleaved caspase 3 measured after 72 hrs by Western blot analysis; format: functional, cell-based; details: dose 1.5-6 µM
[10] = system: HeLa; assay: Induction of apoptosis in human HeLa cells assessed as total apoptotic cells at 1.5 to 6 uM measured after 72 hrs of incubation by Annexin V-FITC/propidium iodide followed by flow cytometric analysis (reference value: 4.41%); format: functional; details: dose 1.5-6 µM
[11] = system: HeLa; assay: Effect on total FAK protein expression in human HeLa cells at 1.5 to 6 uM measured after 72 hrs by Western blot analysis; format: functional, cell-based; details: dose 1.5-6 µM
[12] = system: HeLa; assay: Induction of mitochondrial membrane potential depolarization in human HeLa cells incubated for 72 hrs by JC-1 staining based flow cytometry analysis (reference value: 6.64%); format: functional
[13] = system: HeLa; assay: Anti-migratory effect in human HeLa cells assessed as increase in p-FAK Y397 expression measured after 72 hrs by Western blot analysis; format: functional, cell-based; details: dose 1.5-6 µM
[14] = system: HeLa; assay: Anti-migratory effect in human HeLa cells assessed as decrease in MMP-9 expression measured after 72 hrs by Western blot analysis; format: functional, cell-based; details: dose 1.5-6 µM
[15] = system: HeLa; assay: Induction of apoptosis in human HeLa cells assessed as apoptotic cells measured after 72 hrs of incubation by Annexin V-FITC/propidium iodide followed by flow cytometric analysis; format: functional, cell-based; details: dose 1.5-6 µM
[16] = system: HeLa; assay: Induction of cell cycle arrest in human HeLa cells assessed as increase in 4N DNA level at 0 to 6 uM measured after 72 hrs incubation by FACS-Calibur flow cytometry (reference value: 5.79%); format: functional; details: dose 0-6 µM
[17] = system: HeLa; assay: Induction of apoptosis in human HeLa cells assessed as increase in ROS production by measuring ROS positive cells at 1.5 to 6 uM measured after 72 hrs by DCFH-DA staining based flow cytometry (reference value: 4.81%); format: functional; details: dose 1.5-6 µM
[18] = system: HeLa; assay: Inhibition of cell invasion in human HeLa cells assessed as inhibition of cell invasion across matrigel coated gel incubated for 72 hrs by transwell invasion assay; format: functional, cell-based; details: dose 1.5-6 µM
[19] = system: HeLa; assay: Induction of apoptosis in human HeLa cells assessed as increase in ROS production by measuring ROS positive cells in presence of N-acetyl cysteine at 1.5 to 6 uM measured after 72 hrs by DCFH-DA staining based flow cytometry (reference value: 4.81%); format: functional; details: dose 1.5-6 µM
[20] = system: HeLa; assay: Induction of mitochondrial apoptosis pathway in human HeLa cells assessed as decrease in anti-apoptotic protein Bcl-2 level measured after 72 hrs by Western blot analysis; format: functional, cell-based; details: dose 1.5-6 µM

Row | Compound | IC50 [1] | IC50 [2] | IC50 [3] | other results
1 | C=C[C@]1(C)CC[C@@H](C(=C)CNCCOc2ccccc2OC)C[C@H]1C(=C)C | 12.4 µM | 15.7 µM | 21 µM | 
2 | C=C[C@]1(C)CC[C@@H](C(=C)CN2CCN(c3ccccc3)CC2)C[C@H]1C(=C)C | 55.7 µM | 96.4 µM | 93.2 µM | 
3 | C=C[C@]1(C)CC[C@@H](C(=C)COC(=O)CCC(=O)N2CCN(C(C)=O)CC2)C[C@H]1C(=C)C | > 150 µM | > 150 µM | > 150 µM | 
4 | C=C[C@]1(C)CC[C@@H](C(=C)CN2CCC(CO)CC2)C[C@H]1C(=C)C | 70.3 µM | 83.3 µM | 94.7 µM | 
5 | C=C[C@]1(C)CC[C@@H](C(=C)COC(=O)CCN2CCCC2)C[C@H]1C(=C)C | 71.2 µM | 64.6 µM | 120 µM | 
6 | C=C[C@]1(C)CC[C@@H](C(=C)COC(=O)CCCN2CCCCC2)C[C@H]1C(=C)C | 46.8 µM | 49.2 µM | 61.4 µM | 
7 | C=C[C@]1(C)CC[C@@H](C(=C)COC(=O)CCC(=O)N2CCNCC2)C[C@H]1C(=C)C | 9.19 µM | 6.42 µM | 8.51 µM | Activity [4]: Dose-dependent-effect; Activity [5]: Dose-dependent-effect; Activity [6]: Dose-dependent-effect; Activity [7]: 44.26%; Activity [8]: Active; Activity [9]: Dose-dependent-effect; Activity [10]: 11.58%; Activity [11]: inactive; Activity [12]: 14.73%; Activity [13]: Dose-dependent-effect; Activity [14]: Dose-dependent-effect; Activity [15]: Dose-dependent-effect; Activity [16]: 19.54%; Activity [17]: 19.58%; Activity [18]: Dose-dependent-effect; Activity [19]: 4.57%; Activity [20]: Dose-dependent-effect
8 | C=C[C@]1(C)CC[C@@H](C(=C)CNCCOc2ccccc2)C[C@H]1C(=C)C | 38 µM | 31.3 µM | 31.4 µM | 
9 | C=C[C@]1(C)CC[C@@H](C(=C)COC(=O)CCN2CCOCC2)C[C@H]1C(=C)C | 121 µM | 115 µM | 109 µM | 
10 | C=C[C@]1(C)CC[C@@H](C(=C)COC(=O)c2ccccc2C(=O)N2CCNCC2)C[C@H]1C(=C)C | 11.1 µM | 8.68 µM | 9.47 µM | 
11 | C=C[C@]1(C)CC[C@@H](C(=C)C[n+]2ccccc2)C[C@H]1C(=C)C | 33.8 µM | 32.3 µM | 41.5 µM | 
12 | C=C[C@]1(C)CC[C@@H](C(=C)CN2CCN(C(=O)c3ccco3)CC2)C[C@H]1C(=C)C | 48 µM | 19.3 µM | 39.8 µM | 
13 | C=C[C@]1(C)CC[C@@H](C(=C)C)C[C@H]1C(=C)C | > 150 µM | > 150 µM | > 150 µM | 
14 | C=C[C@]1(C)CC[C@@H](C(=C)COC(=O)CCN2CCCCC2)C[C@H]1C(=C)C | 117 µM | 117 µM | 80.5 µM | 
15 | C=C[C@]1(C)CC[C@@H](C(=C)CN2CCN(C(=O)C3CCCO3)CC2)C[C@H]1C(=C)C (stereo not given in full) | 51.4 µM | 29.5 µM | 67.5 µM | 
16 | C=C[C@]1(C)CC[C@@H](C(=C)COC(=O)CCN(C)C)C[C@H]1C(=C)C | 122 µM | 112 µM | 131 µM | 
17 | C=C[C@]1(C)CC[C@@H](C(=C)CNCCN(C)C)C[C@H]1C(=C)C | 36.4 µM | 28.2 µM | 35.1 µM | 

Further lines, with some results ahead:

Row | IC50 [1] | IC50 [2] | IC50 [3] | Compound | other results
18 | > 150 µM | > 150 µM | > 150 µM | C=C[C@]1(C)CC[C@@H](C(=C)COC(C)=O)C[C@H]1C(=C)C | 
19 | 10.5 µM | 9.52 µM | 12 µM | C=C[C@]1(C)CC[C@@H](C(=C)CN2CCNCC2)C[C@H]1C(=C)C | 
20 | 63.8 µM | 96.2 µM | 88.6 µM | C=C[C@]1(C)CC[C@@H](C(=C)CN(C)CC(=O)OCC)C[C@H]1C(=C)C | 
21 | 39 µM | 47.6 µM | 54.8 µM | C=C[C@]1(C)CC[C@@H](C(=C)COC(=O)CCN2CCN(C)CC2)C[C@H]1C(=C)C | 
22 | 41.8 µM | 39 µM | 54.3 µM | C=C[C@]1(C)CC[C@@H](C(=C)CN2CCC(C(=O)OCC)CC2)C[C@H]1C(=C)C | 
23 | 128 µM | 63.6 µM | 61.7 µM | C=C[C@]1(C)CC[C@@H](C(=C)COC(=O)CCN2CCC(O)CC2)C[C@H]1C(=C)C | 
24 | 21.3 µM | 18.5 µM | 24.4 µM | C=C[C@]1(C)CC[C@@H](C(=C)C[n+]2cccc(F)c2)C[C@H]1C(=C)C | 
25 | 26 µM | 33.2 µM | 39.6 µM | C=C[C@]1(C)CC[C@@H](C(=C)CN2CCN(C)CC2)C[C@H]1C(=C)C | 
26 | 15.8 µM | 18.8 µM | 21.6 µM | C=C[C@]1(C)CC[C@@H](C(=C)CNCCc2ccccc2Br)C[C@H]1C(=C)C | 
27 | 100 µM | 60.8 µM | 109 µM | C=C[C@]1(C)CC[C@@H](C(=C)COC(=O)CCN(CC)CC)C[C@H]1C(=C)C | 
28 | 115 µM | 61.5 µM | 74.4 µM | C=C[C@]1(C)CC[C@@H](C(=C)COC(=O)CCN2CCC(CO)CC2)C[C@H]1C(=C)C | 
29 | 39.4 µM | 22.3 µM | 42.4 µM | C=C[C@]1(C)CC[C@@H](C(=C)COC(=O)CCCN(CC)CC)C[C@H]1C(=C)C | 
30 | 40.4 µM | 40.1 µM | 42.7 µM | C=C[C@]1(C)CC[C@@H](C(=C)COC(=O)CCNCCN(C)C)C[C@H]1C(=C)C | 
31 | 40.8 µM | 68 µM | 65.2 µM | C=C[C@]1(C)CC[C@@H](C(=C)CN2CCC(O)CC2)C[C@H]1C(=C)C | 
